# Measured values reported in ChEMBL document CHEMBL4819091, “Identification of novel gankyrin binding scaffolds by high throughput virtual screening” (Bioorg Med Chem Lett, 2021).
# Activity calls are given as the source filed them. The rule behind the calls is not given here.
# Experiments:
# [1] = molecular target: T1, 26S proteasome non-ATPase regulatory subunit 10 (Homo sapiens) (UniProt O75832); experiment: Binding affinity to recombinant human His-tagged gankyrin expressed in Escherichia coli assessed as change in melting temperature at 300 uM by SYPRO orange dye based thermal shift assay
# T1 sequence (whole entry): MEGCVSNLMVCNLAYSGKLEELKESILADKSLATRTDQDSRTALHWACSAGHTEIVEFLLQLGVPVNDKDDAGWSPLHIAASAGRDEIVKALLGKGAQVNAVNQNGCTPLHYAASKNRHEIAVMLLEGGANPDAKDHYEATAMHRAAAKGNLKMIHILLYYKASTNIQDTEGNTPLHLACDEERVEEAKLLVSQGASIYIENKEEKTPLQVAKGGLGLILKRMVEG
# A549 [2] = experiment: Cytotoxicity against human A549 cells assessed as reduction in cell viability incubated for 72 hrs by MTT assay; format: functional, cell-based; details: A549, 72 h
# MDA-MB-231 [3] = experiment: Cytotoxicity against human MDA-MB-231 cells assessed as reduction in cell viability incubated for 72 hrs by MTT assay; format: functional, cell-based; details: MDA-MB-231, 72 h
# HepG2 [4] = experiment: Cytotoxicity against human HepG2 cells assessed as reduction in cell viability incubated for 72 hrs by MTT assay; format: functional, cell-based; details: HepG2, 72 h
# Hep 3B2 [5] = experiment: Cytotoxicity against human Hep3B cells assessed as reduction in cell viability incubated for 72 hrs by MTT assay; format: functional, cell-based
# [6] = Cytotoxicity against human HuH-6 cells assessed as reduction in cell viability incubated for 72 hrs by MTT assay; format: functional, cell-based; details: HuH-6, 72 h
# A549 [7] = experiment: Potency index, ratio of IC50 of Cjoc42 to IC50 of compound for cytotoxicity against human A549 cells assessed as reduction in cell viability incubated for 72 hrs by MTT assay; format: functional
# MDA-MB-231 [8] = experiment: Potency index, ratio of IC50 of Cjoc42 to IC50 of compound for cytotoxicity against human MDA-MB-231 cells assessed as reduction in cell viability incubated for 72 hrs by MTT assay; format: functional
# HepG2 [9] = experiment: Potency index, ratio of IC50 of Cjoc42 to IC50 of compound for cytotoxicity against human HepG2 cells assessed as reduction in cell viability incubated for 72 hrs by MTT assay; format: functional
# Hep 3B2 [10] = experiment: Potency index, ratio of IC50 of Cjoc42 to IC50 of compound for cytotoxicity against human Hep3B cells assessed as reduction in cell viability incubated for 72 hrs by MTT assay; format: functional
# [11] = Potency index, ratio of IC50 of Cjoc42 to IC50 of compound for cytotoxicity against human HuH-6 cells assessed as reduction in cell viability incubated for 72 hrs by MTT assay; format: functional
# [12] = molecular target: T1, 26S proteasome non-ATPase regulatory subunit 10 (Homo sapiens); experiment: Inhibition of gankyrin in human HuH-6 cells assessed as increase in p53 level at 25 to 100 uM by immunoblot assay; format: cell-based; details: dose 25-100 µM
# [13] = molecular target: T1, 26S proteasome non-ATPase regulatory subunit 10 (Homo sapiens); experiment: Inhibition of gankyrin in human HuH-6 cells assessed as increase in phopho-Rb level at 25 to 100 uM by immunoblot assay; format: cell-based; details: dose 25-100 µM
# [14] = molecular target: T1, 26S proteasome non-ATPase regulatory subunit 10 (Homo sapiens); experiment: Inhibition of gankyrin in human Hep3B cells assessed as increase in p53 level at 12.5 to 50 uM by immunoblot assay; format: cell-based; details: dose 12.5-50 µM
# [15] = molecular target: T1, 26S proteasome non-ATPase regulatory subunit 10 (Homo sapiens); experiment: Inhibition of gankyrin in human Hep3B cells assessed as increase in CUGBP1 level at 12.5 to 50 uM by immunoblot assay; format: cell-based; details: dose 12.5-50 µM
SMILES,ΔTm [1] [°C],IC50 (A549 [2]) [µM],IC50 (MDA-MB-231 [3]) [µM],IC50 (HepG2 [4]) [µM],IC50 (Hep 3B2 [5]) [µM],IC50 [6] [µM],Ratio IC50 (A549 [7]),Ratio IC50 (MDA-MB-231 [8]),Ratio IC50 (HepG2 [9]),Ratio IC50 (Hep 3B2 [10]),Ratio IC50 [11],inhibition [12],inhibition [13],inhibition [14],inhibition [15]
COc1cccc2c1O[C@@](C)(CCC(=O)O)[C@@H]1CC[C@@H](CCCN)O[C@@H]21,0.17,–,–,–,–,–,–,–,–,–,–,–,–,–,–
CS(=O)(=O)Cc1cccc(C(=O)NS(=O)(=O)c2ccc(S(C)(=O)=O)cc2)c1,0.29,–,–,–,–,–,–,–,–,–,–,–,–,–,–
O=C(O)CN(Cc1ccc(Cl)cc1)C(=O)c1cnc(N2CCC[C@H]2COc2ccc(Cl)cc2)nc1CCc1ccccc1,7.92,45.6,88.1,52.7,25.5,44.3,2.2,1.1,1.9,3.9,1.6,–,–,–,–
O=C(O)COc1ccc(CC(=O)O)cc1-c1cc(-c2ccc(Cl)cc2)n(CCc2ccccc2)n1,1.94,> 100,> 100,> 100,> 100,> 100,–,–,–,–,–,Active,Active,Active,Active
COC(=O)c1ccc(-n2cc(CCCOS(=O)(=O)c3ccc(C)cc3)nn2)cc1,0.5,> 100,> 100,> 100,> 100,70.7,–,–,–,–,–,–,–,–,–
